The values below come from ChEMBL document CHEMBL1201862, “PubChem BioAssay data set” (2004).

Some test systems named below: TK-10; SF-268; MOLT-4; K562; NCI-H460; CCRF-CEM; SK-MEL-28; LOX IMVI; SK-MEL-2; HCT-15; UACC-62; Malme-3M; SF-295; U-251; SNB-19; SF-539; SK-MEL-5; OVCAR-3; NCI-H23; CAKI-1.
Holding throughout (test): NCI-60 cell line screen, 48 h

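Method: 48-hour compound exposure of cells in 96-well plates, five concentrations, linear interpolation of endpoints. At the GI50, growth is halved.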 Activity calls are given as the source filed them. Rule as the data show it: active = GI50 up to about 1.1 µM and inactive = higher.

As to `Nc1nc(SCc2ccc([N+](=O)[O-])cc2)nc2c1ncn2C1OC(COP(=O)(O)O)C(O)C1O` (stereo not given), the GI50 in the assay on TK-10, in the assay on SF-268, in the assay on MOLT-4, with K562, in the assay with NCI-H460 and in the assay with CCRF-CEM was > 100 µM (inactive) each time. Besides, the GI50 in the assay on SK-MEL-28 was > 100 µM (inactive); in the assay with LOX IMVI, > 100 µM (inactive); in the assay on SK-MEL-2, > 100 µM (inactive); in the assay on HCT-15 it was > 100 µM; in the assay on UACC-62 it was > 100 µM (inactive); with Malme-3M it was > 100 µM (inactive). For the same molecule, the GI50 with SF-295, in the assay with U-251, with SNB-19, in the assay on SF-539, in the assay with SK-MEL-5 and in the assay on OVCAR-3 was > 100 µM (inactive) throughout. The GI50 in the assay on NCI-H23 is > 100 µM (inactive).

In the case of `O=C(OC1C=C=CS(=O)(=O)CC#C/C=C\1)c1cnc2ccccc2n1` (stereo not given), the GI50 in the assay with TK-10 is > 100 µM (inactive); in the assay with SF-268 it was > 100 µM (inactive); in the assay on MOLT-4, 50.7 µM (inactive); with CAKI-1, > 100 µM (inactive); in the assay on K562, 61.4 µM (inactive); in the assay with NCI-H460 it was > 100 µM (inactive). In addition, the GI50 in the assay with CCRF-CEM is > 100 µM (inactive); with SK-MEL-28 it was > 100 µM (inactive); with LOX IMVI, 29.8 µM (inactive); in the assay on SK-MEL-2 it was > 100 µM (inactive); in the assay with HCT-15, 48.4 µM; in the assay with UACC-62 it was 26.4 µM (inactive). In addition, the GI50 is > 100 µM (inactive) in the assay on Malme-3M; > 100 µM (inactive) in the assay on SF-295; 84.1 µM (inactive) with U-251; > 100 µM (inactive) with SNB-19; > 100 µM (inactive) in the assay with SF-539; 91.4 µM (inactive) in the assay with SK-MEL-5. For the same molecule, the GI50 in the assay on OVCAR-3 was > 100 µM (inactive); with NCI-H23 it was 83.6 µM (inactive).

For the molecule `COC(=O)/C=C(C)/C=C\COC1CCCCO1` (stereo not given), the GI50 in the assay with TK-10, with SF-268, with MOLT-4, in the assay with CAKI-1, in the assay on K562 and with NCI-H460 was > 100 µM (inactive) each time. The GI50 is > 100 µM (inactive) with CCRF-CEM; > 100 µM (inactive) in the assay on SK-MEL-28; > 100 µM (inactive) with LOX IMVI; > 100 µM (inactive) in the assay on SK-MEL-2; > 100 µM with HCT-15; > 100 µM (inactive) in the assay on UACC-62. Also, the GI50 with Malme-3M, in the assay with SF-295, in the assay on U-251, with SNB-19, in the assay on SK-MEL-5 and in the assay with OVCAR-3 was > 100 µM (inactive) each time. Also, the GI50 in the assay with NCI-H23 was > 100 µM (inactive).

For the molecule `O=C(NN1C(=O)C(Cl)C1c1cccc(O)c1)c1ccccc1O` (stereo not given), the GI50 in the assay with TK-10, with SF-268, in the assay on MOLT-4, with K562, with NCI-H460 and in the assay on CCRF-CEM was > 100 µM (inactive) each time. Moreover, the GI50 was > 100 µM (inactive) in the assay with SK-MEL-28; > 100 µM (inactive) in the assay on LOX IMVI; > 100 µM (inactive) in the assay on SK-MEL-2; > 100 µM with HCT-15; > 100 µM (inactive) in the assay with UACC-62; > 100 µM (inactive) in the assay on Malme-3M. Further, the GI50 in the assay with SF-295, in the assay on U-251, in the assay with SNB-19, with SF-539, in the assay on SK-MEL-5 and in the assay on OVCAR-3 was > 100 µM (inactive) throughout. For the same molecule, in the assay on NCI-H23, the GI50 is > 100 µM (inactive).

As to `COC(=O)C12CCCN1CCC2`, the GI50 in the assay on TK-10, with SF-268, in the assay on MOLT-4, in the assay on CAKI-1, with K562 and in the assay with NCI-H460 was > 100 µM (inactive) each time. The GI50 with CCRF-CEM was > 100 µM (inactive); with SK-MEL-28, > 100 µM (inactive); in the assay on LOX IMVI, > 100 µM (inactive); with SK-MEL-2, > 100 µM (inactive); in the assay with HCT-15, > 100 µM; in the assay with UACC-62, > 100 µM (inactive). For the same molecule, the GI50 in the assay with Malme-3M, in the assay on SF-295, in the assay on U-251, with SNB-19, in the assay on SK-MEL-5 and in the assay with OVCAR-3 was > 100 µM (inactive) in each case. In addition, in the assay on NCI-H23, the GI50 is > 100 µM (inactive).

As to `O=S(=O)(O)c1cc(/N=[N+](\[O-])c2ccc(/N=N/c3ccccc3)cc2S(=O)(=O)O)ccc1/C=C/c1ccc(/N=[N+](\[O-])c2ccc(/N=N/c3ccccc3)cc2S(=O)(=O)O)cc1S(=O)(=O)O`, the GI50 was > 100 µM (inactive) in the assay with SF-268; > 100 µM (inactive) in the assay with MOLT-4; > 100 µM (inactive) in the assay on K562; > 100 µM (inactive) in the assay on NCI-H460; > 95.3 µM (inactive) with CCRF-CEM; > 100 µM (inactive) in the assay with SK-MEL-28. Besides, the GI50 in the assay on LOX IMVI is > 100 µM (inactive); with SK-MEL-2, > 100 µM (inactive); in the assay on HCT-15, > 100 µM; in the assay with UACC-62, > 100 µM (inactive); in the assay with Malme-3M, > 100 µM (inactive); in the assay with SF-295, > 58.3 µM (inactive). The GI50 in the assay with U-251 was > 100 µM (inactive); with SNB-19 it was > 100 µM (inactive); in the assay with SF-539 it was > 31.6 µM (inactive); with SK-MEL-5, > 100 µM (inactive); in the assay with OVCAR-3, > 100 µM (inactive); in the assay with NCI-H23, > 100 µM (inactive).

Consider `CCOC(=O)c1csc(NC(=O)CN2CCOCC2)n1`, for which the GI50 was > 100 µM (inactive) in the assay on TK-10; > 100 µM (inactive) in the assay on SF-268; 17.1 µM (inactive) in the assay on MOLT-4; > 100 µM (inactive) with CAKI-1; > 100 µM (inactive) in the assay on K562; > 100 µM (inactive) in the assay with NCI-H460. Also, the GI50 in the assay with CCRF-CEM is > 100 µM (inactive); in the assay on SK-MEL-28, > 100 µM (inactive); in the assay with LOX IMVI, > 100 µM (inactive); with SK-MEL-2 it was > 100 µM (inactive); in the assay on HCT-15, > 100 µM; with UACC-62, > 100 µM (inactive). For the same molecule, the GI50 in the assay on SF-295, in the assay on U-251, in the assay with SNB-19, in the assay on SF-539, with SK-MEL-5 and in the assay with OVCAR-3 was > 100 µM (inactive) in each case. Moreover, the GI50 with NCI-H23 was > 100 µM (inactive).

With `NC(=O)N/C=C1\C(=O)Oc2ccccc2C1=O`, the GI50 with TK-10 was > 100 µM (inactive); in the assay with SF-268 it was 95.7 µM (inactive); with MOLT-4, > 100 µM (inactive); in the assay on K562, > 100 µM (inactive); with NCI-H460, > 100 µM (inactive); with CCRF-CEM it was > 100 µM (inactive). The GI50 with SK-MEL-28 was 73.5 µM (inactive); in the assay with LOX IMVI it was > 100 µM (inactive); in the assay with SK-MEL-2 it was 40 µM (inactive); with HCT-15, 48.5 µM; with UACC-62, 77.8 µM (inactive); in the assay with SF-295 it was 51.8 µM (inactive). For the same molecule, the GI50 in the assay with SNB-19 is 82.8 µM (inactive); in the assay with SF-539, 85.9 µM (inactive); in the assay on SK-MEL-5, > 100 µM (inactive); in the assay with OVCAR-3 it was 84.7 µM (inactive); with NCI-H23 it was > 100 µM (inactive).
